We go through three molecules from patent publication US20020032177A1, “Use of D-chiro-inositol in the treatment of conditions associated with hypothalamic gene expression” (Insmed Pharmaceuticals, Inc., priority 2000, published 2002).

The subject of test [1] is leptin mRNA. Briefly: Leptin mRNA in mice after DCI administration. The format is in vivo. The note with it: FIG. 3. The source says: (§1) FIG. 3 and FIG. 4 depict, respectively, the effect of DCI administration on leptin mRNA and plasma leptin in mice. […] Thus, DCI enhances the rate of translation and secretion of leptin.
In another test the test system is plasma leptin. The experiment in a line: Plasma leptin in mice after DCI administration. The format is in vivo. The note with it: FIG. 4.
From the text: as §1

The subject of a further test is NPY mRNA. The experiment in a line: NPY mRNA levels in diet-induced obese mice. In kind it is in vivo. The text has this: (§2) A high calorie diet (compositionally equivalent to the typical American diet) will induce obesity and diabetes in some mouse strains (e.g., C57BL/6J) but not others (e.g., A/J). […] These changes in hypothalamic gene expression are ultimately regulated by insulin, although part of the effect may be mediated indirectly by the effect of insulin on leptin synthesis in fat, which then feeds back to hypothalamus to enhance the direct effect of insulin on the hypothalamus. By enhancing the rate of translation and secretion of leptin this hypothalamic response is blocked or attenuated.
(§3) FIG. 1 and FIG. 2 depicts the results of studies in the diet induced mice on NPY and AGRP mRNA levels. DCI leads to lower NPY and AGRP mRNA.

A further test relates to AGRP mRNA. Briefly: AGRP mRNA levels in diet-induced obese mice. The format is in vivo. The settings on record: FIG. 2.
From the text: as §2, §3

Test [2] can be described thus: Adiposity of mice after DCI administration. In kind it is in vivo. The settings on record: fed and 48-hour fasted.
From the text: as §1

The conditions of test [3]: obese rodents and humans; cited from earlier work.
The conditions of test [4]: women with PCOS; cited from earlier work.
For test [5] the following is noted: ob/ob mice, daily injections; cited from earlier work.
The conditions of test [6]: lean (wild-type) mice, daily injections; cited from earlier work.
Test [7] has as its system leptin mRNA. The note with it: elevation of leptin by injection; cited from earlier work.

Where two headings read alike, the source gives them in different places.

Regarding `OC1C(O)C(O)C(O)C(O)C1O` [DCI, D-chiro-inositol], the “leptin mRNA” value with leptin mRNA [1] is reported as “decrease”. In addition, the “increase of plasma leptin” value in the test with plasma leptin (48-hour fasted mice) is reported as “over 5 fold”; in the test on plasma leptin (fed mice) it was “over 2 fold”. In addition, in the test with NPY mRNA (diet induced mice, FIG. 1), the “NPY mRNA” value is “lower”. In the test on NPY mRNA (fasted state, diet-induced obese mice), the “effect of fasting on NPY and AGRP mRNA” value is “blocks or attenuates the effect of fasting”. Further, the “AGRP mRNA” value in the test on AGRP mRNA is recorded as “lower”. For the same molecule, the adiposity entry in test [2] is listed as “without increasing adiposity”.

Turning to `CN(C)C(=N)N=C(N)N` [Metformin], the food intake result in test [3] is given as “decreases”. Besides, the fertility entry in [4] was “partially restores”.

B1: leptin: product of the obese (ob) gene, secreted by adipose cells; given as daily injections of recombinant protein (protein, UniProt P41160 22-167, looked up)
Leptin: VPIQKVQDDTKTLIKTIVTRINDISHTQSVSAKQRVTGLDFIPGLHPILSLSKMDQTLAVYQQVLTSLPSQNVLQIANDLENLRDLLHLLAFSKSCSLPQTSGLQKPESLDGVLEASLYSTEVVALSRLQGSLQDILQQLDVSPEC
On to B1, for which, in test [5], the “body weight and fat” value is “reduction”; the food intake entry is “markedly inhibited”. Also, in test [6], the “food intake and body weight” value is “modest decreases”. The “leptin mRNA” value with leptin mRNA [7] is on record as “pronounced decreases”.
